The values below are quoted from earlier work in US8426587B2, “Haloallylamine inhibitors of SSAO/VAP-1 and uses therefor” (Pharmaxis Ltd., priority 2007, dated 2013).

The test system of the series is LPS-induced pulmonary inflammation. The following applies: cited from earlier work.

Turning to `NC/C(=C/F)CCc1ccc(F)cc1` [Mofegiline, reference compound], the BAL cell counts entry (mouse overexpressing human SSAO/VAP-1, LPS) is “significantly reduces”. In addition, the “LPS-induced increase in TNF-a” value (mouse overexpressing human SSAO/VAP-1) is listed as “significantly attentuates”.
